From the supplement of paper PMC10307832

Assays:
Test in all cases: relative viability (nuclei count vs DMSO), 5 days (fraction); higher = more cells survive
Veliparib + Trametinib = compound: C[C@]1(c2nc3c(C(N)=O)cccc3[nH]2)CCCN1 [Veliparib] + CC(=O)Nc1cccc(-n2c(=O)n(C3CC3)c(=O)c3c(Nc4ccc(I)cc4F)n(C)c(=O)c(C)c32)c1 [Trametinib] (partner 0.02 µM)
Summary of the method: (§1)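 A single step with final 0.05% Triton X-100, 1% formaldehyde and 1 ug/ml Hoechst fixed the cells and stained nuclei 5 days after treatment. Lung cancer cell lines in 1536-well plates had been treated by pin tool the day after seeding with one drug alone or a fixed anchor-drug dose plus five library-drug doses (not always all listed) in √10 steps, and nuclei were counted on 4× images. Relative viability is the ratio of nuclei in treated wells to nuclei in vehicle wells, taken as the median of duplicate plates.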

Veliparib + Foretinib = compound: C[C@]1(c2nc3c(C(N)=O)cccc3[nH]2)CCCN1 [Veliparib] + COc1cc2c(Oc3ccc(NC(=O)C4(C(=O)Nc5ccc(F)cc5)CC4)cc3F)ccnc2cc1OCCCN1CCOCC1 [Foretinib] (partner 0.25 µM)
Summary of the method: as §1

[1] = compound: COC1=CC=C(C=C1)CN2C=CC3=C2C=C(C=C3)C(=O)NO + Cc1nc(Nc2ncc(C(=O)Nc3c(C)cccc3Cl)s2)cc(N2CCN(CCO)CC2)n1 [Dasatinib] (partner 0.075 µM)
Summary of the method: as §1

[2] = compound: COC1=CC=C(C=C1)CN2C=CC3=C2C=C(C=C3)C(=O)NO + CC(C)C[C@H](NC(=O)[C@H](Cc1ccccc1)NC(=O)c1cnccn1)B(O)O [Bortezomib] (partner 0.002 µM)
Summary of the method: as §1

Cell Line | relative viability (Veliparib + Trametinib; first compound 0.02 µM) | relative viability (Veliparib + Trametinib; first compound 0.06325 µM) | relative viability (Veliparib + Trametinib; first compound 0.2 µM) | relative viability (Veliparib + Trametinib; first compound 0.6325 µM) | relative viability (Veliparib + Trametinib; first compound 2 µM) | relative viability (Veliparib + Foretinib; first compound 0.02 µM) | relative viability (Veliparib + Foretinib; first compound 0.06325 µM) | relative viability (Veliparib + Foretinib; first compound 0.2 µM) | relative viability (Veliparib + Foretinib; first compound 0.6325 µM) | relative viability (Veliparib + Foretinib; first compound 2 µM) | relative viability ([1]; first compound 0.08 µM) | relative viability ([1]; first compound 0.253 µM) | relative viability ([1]; first compound 0.8 µM) | relative viability ([1]; first compound 2.53 µM) | relative viability ([1]; first compound 8 µM) | relative viability ([2]; first compound 0.253 µM) | relative viability ([2]; first compound 0.8 µM) | relative viability ([2]; first compound 2.53 µM) | relative viability ([2]; first compound 8 µM) | relative viability ([2]; first compound 0.08 µM)
HCC-366 | 0.375 | 0.312 | 0.384 | 0.327 | 0.42 | 0.987 | 0.813 | 0.891 | 0.809 | 0.934 | 0.483 | 0.639 | 0.658 | 0.526 | 0.574 | 1.12 | 1.03 | 1.02 | 0.934 | –
NCI-H2009 | 0.289 | 0.291 | 0.316 | 0.302 | 0.33 | 1.35 | 1.21 | 1.17 | 1.2 | 1.28 | 0.281 | 0.284 | 0.326 | 0.276 | 0.197 | 0.967 | 0.958 | 0.975 | 0.84 | 0.771
NCI-H460 | 0.185 | 0.0956 | 0.1 | 0.109 | 0.202 | 0.994 | 0.909 | 0.952 | 0.948 | 0.983 | 0.545 | 0.556 | 0.553 | 0.48 | 0.343 | 0.984 | 1.04 | 1.14 | 1.01 | 1.02
NCI-H2085 | 0.553 | 0.494 | 0.615 | 0.532 | 0.556 | – | 0.787 | 0.909 | 0.647 | 1.15 | 0.235 | 0.293 | 0.221 | 0.225 | 0.214 | 1.24 | 1.14 | 1.1 | 1.08 | 1.05
NCI-H596 | 0.83 | 0.666 | 0.77 | 0.806 | 0.793 | 0.967 | 0.823 | 1.02 | 0.773 | 0.75 | 0.588 | 0.614 | 0.603 | 0.558 | 0.465 | – | 0.943 | 1.07 | 1.02 | 1.04
HCC-15 | 0.422 | 0.374 | 0.429 | 0.357 | 0.4 | – | 1.01 | 1.05 | 1.05 | 1.06 | 0.433 | 0.675 | 0.65 | 0.626 | 0.586 | 1.09 | 1.13 | 1.02 | 0.998 | 0.854
NCI-H2405 | 0.627 | – | 0.64 | 0.578 | 0.745 | 1.09 | 0.937 | 1.08 | 1.03 | 1.07 | 0.209 | 0.214 | 0.221 | 0.196 | 0.177 | 0.924 | 1.02 | 1.01 | 0.961 | 0.546
ChaGo-K-1 | 0.673 | 0.842 | 0.923 | 0.857 | 0.905 | 0.874 | 0.873 | 0.845 | 0.784 | 0.923 | – | 0.589 | 0.631 | 0.584 | 0.486 | 0.752 | 0.962 | 0.942 | 0.868 | –
